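Dose response: 5 concentrations. Exposure: 48 h. Format: 96-well plates. Endpoint: linear interpolation; highest concentration if not reached. GI50: concentration for 50% inhibition of growth.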 Calls of active or inactive are those of the source. No stated cut-off is given here; in the data, active = GI50 up to about 1.1 µM and inactive = higher.
Legend:
Test in all cases: NCI tumour cell line growth inhibition, 48 h
[1] = system: HT-29
[2] = system: UACC-257
[3] = system: NCI-H522
[4] = system: OVCAR-5
[5] = system: 786-0
[6] = system: CAKI-1
[7] = system: SF-539
[8] = system: SN12C
[9] = system: ACHN
[10] = system: M14
[11] = system: NCI-H226
[12] = system: SK-OV-3
[13] = system: UACC-62
[14] = system: CCRF-CEM
[15] = system: RPMI-8226
[16] = system: U-251
[17] = system: MCF7
[18] = system: HOP-62
[19] = system: HCC 2998
[20] = system: HCT-116
[21] = system: SF-268
[22] = system: K562
[23] = system: SW-620
[24] = system: RXF 393
[25] = system: SF-295
[26] = system: NCI-H23
[27] = system: MDA-N
[28] = system: IGROV-1
[29] = system: OVCAR-4
[30] = system: EKVX
[31] = system: MDA-MB-435
[32] = system: OVCAR-8
[33] = system: MOLT-4
[34] = system: NCI/ADR-RES
[35] = system: A549
[36] = system: NCI-H460
[37] = system: MDA-MB-231
[38] = system: KM12
[39] = system: DU-145
[40] = system: Hs-578T
[41] = system: LOX IMVI
[42] = system: TK-10
[43] = system: SNB-75
[44] = system: SNB-19
[45] = system: SK-MEL-28
[46] = system: A498
[47] = system: COLO 205
[48] = system: T47D
[49] = system: HL-60
[50] = system: HCT-15
[51] = system: Malme-3M
[52] = system: SR
[53] = system: SK-MEL-5
[54] = system: HOP-92
[55] = system: OVCAR-3
[56] = system: UO-31
[57] = system: BT-549
[58] = system: PC-3
[59] = system: SK-MEL-2

C=CO/N=[N+](\[O-])N(CC)CC
GI50 [1]: > 100 µM (inactive) | GI50 [2]: > 100 µM (inactive) | GI50 [3]: > 100 µM (inactive) | GI50 [4]: > 100 µM (inactive) | GI50 [5]: > 100 µM (inactive) | GI50 [6]: > 100 µM (inactive) | GI50 [7]: > 100 µM (inactive) | GI50 [8]: > 100 µM (inactive) | GI50 [9]: > 100 µM (inactive) | GI50 [10]: > 100 µM (inactive) | GI50 [11]: > 100 µM (inactive) | GI50 [12]: > 100 µM (inactive) | GI50 [13]: > 100 µM (inactive) | GI50 [14]: > 100 µM (inactive) | GI50 [15]: > 100 µM (inactive) | GI50 [16]: > 100 µM (inactive) | GI50 [17]: > 100 µM (inactive) | GI50 [18]: > 100 µM (inactive) | GI50 [19]: > 100 µM (inactive) | GI50 [20]: > 100 µM (inactive) | GI50 [21]: > 100 µM (inactive) | GI50 [22]: > 100 µM (inactive) | GI50 [23]: > 100 µM (inactive) | GI50 [24]: > 100 µM (inactive) | GI50 [25]: > 100 µM (inactive) | GI50 [26]: > 100 µM (inactive) | GI50 [27]: > 100 µM (inactive) | GI50 [28]: > 100 µM (inactive) | GI50 [29]: > 100 µM (inactive) | GI50 [30]: > 100 µM (inactive) | GI50 [31]: > 100 µM (inactive) | GI50 [32]: > 100 µM (inactive) | GI50 [33]: > 100 µM (inactive) | GI50 [34]: > 100 µM (inactive) | GI50 [35]: > 100 µM (inactive) | GI50 [36]: > 100 µM (inactive) | GI50 [37]: > 100 µM (inactive) | GI50 [38]: > 100 µM (inactive) | GI50 [39]: > 100 µM (inactive) | GI50 [40]: > 100 µM (inactive) | GI50 [41]: > 100 µM (inactive) | GI50 [42]: > 100 µM (inactive) | GI50 [43]: > 100 µM (inactive) | GI50 [44]: > 100 µM (inactive) | GI50 [45]: > 100 µM (inactive) | GI50 [46]: > 100 µM (inactive) | GI50 [47]: > 100 µM (inactive) | GI50 [48]: > 100 µM (inactive) | GI50 [49]: > 100 µM (inactive) | GI50 [50]: > 100 µM | GI50 [51]: > 100 µM (inactive) | GI50 [52]: > 100 µM (inactive) | GI50 [53]: > 100 µM (inactive) | GI50 [54]: > 100 µM (inactive) | GI50 [55]: > 100 µM (inactive)

Cc1ccnc(Nc2[nH]c(C(=O)c3ccc(Cl)cc3)c(N)c2C(=S)Nc2ccccc2)c1
GI50 [1]: 14.9 µM (inactive) | GI50 [2]: 15.6 µM (inactive) | GI50 [3]: 12.8 µM (inactive) | GI50 [4]: 21.2 µM (inactive) | GI50 [5]: 19.1 µM (inactive) | GI50 [6]: 27.9 µM (inactive) | GI50 [7]: 12.7 µM (inactive) | GI50 [8]: 15.7 µM (inactive) | GI50 [9]: 21.7 µM (inactive) | GI50 [10]: 16.4 µM (inactive) | GI50 [11]: 17.7 µM (inactive) | GI50 [12]: 13.8 µM (inactive) | GI50 [13]: 10.6 µM (inactive) | GI50 [14]: 25.8 µM (inactive) | GI50 [15]: 11 µM (inactive) | GI50 [56]: 18 µM (inactive) | GI50 [16]: 15.1 µM (inactive) | GI50 [57]: 14.2 µM (inactive) | GI50 [17]: 9.16 µM (inactive) | GI50 [18]: 20.5 µM (inactive) | GI50 [19]: 14.7 µM (inactive) | GI50 [20]: 14.2 µM (inactive) | GI50 [21]: 21.1 µM (inactive) | GI50 [22]: 18.3 µM (inactive) | GI50 [23]: 25.9 µM (inactive) | GI50 [24]: 15.9 µM (inactive) | GI50 [25]: 14.5 µM (inactive) | GI50 [26]: 19.3 µM (inactive) | GI50 [27]: 15.2 µM (inactive) | GI50 [28]: 9.02 µM (inactive) | GI50 [29]: 6.01 µM (inactive) | GI50 [30]: 14.5 µM (inactive) | GI50 [31]: 15.7 µM (inactive) | GI50 [58]: 20.8 µM (inactive) | GI50 [32]: 12.2 µM (inactive) | GI50 [33]: 10.9 µM (inactive) | GI50 [34]: 2.57 µM (inactive) | GI50 [35]: 16 µM (inactive) | GI50 [36]: 5.82 µM (inactive) | GI50 [37]: 16.6 µM (inactive) | GI50 [38]: 10 µM (inactive) | GI50 [39]: 22.1 µM (inactive) | GI50 [59]: 8.59 µM (inactive) | GI50 [41]: 14.8 µM (inactive) | GI50 [42]: 17.2 µM (inactive) | GI50 [43]: 18.1 µM (inactive) | GI50 [44]: 23.4 µM (inactive) | GI50 [45]: 18.6 µM (inactive) | GI50 [46]: 19.1 µM (inactive) | GI50 [47]: 16 µM (inactive) | GI50 [48]: 19.7 µM (inactive) | GI50 [49]: 23.8 µM (inactive) | GI50 [50]: 16.1 µM | GI50 [51]: 13.8 µM (inactive) | GI50 [52]: 12.6 µM (inactive) | GI50 [54]: 17.2 µM (inactive) | GI50 [55]: 25.8 µM (inactive)

Source: ChEMBL document CHEMBL1201862, “PubChem BioAssay data set” (2004)
